Test results published in patent US9018199B2, “Transition metal complexes for inhibiting resistance in the treatment of cancer and metastasis” (Ecole Polytechnique Federale de Lausanne (EPFL), priority 2006, dated 2015).
“And” between values parts separate entries of the source, which are not always exact repeats. Equal values may be shown once. Read-outs that look alike come from different tables or passages of the source.

Key:
[1] = system: HT-29 colon carcinoma cell line; assay: Cell growth proliferation inhibition, MTT assay, HT29; assay type: cell-based, human; conditions: 72 hours exposure
Protocol: (§1) When the cell are confluent, they are trypsinised and seeded in 48-well plates as monolayers for 24 h. […] The media is removed from the cell plates are the drug solutions applied in triplicate. A set of control cells, with media containing 1.0% DMSO, was left on each plate. The cells were exposed to the drugs for 72 hours. For […], (8) and (9), the Ru compounds are weighed, and dissolved directly in medium to 1600 μM, then serially diluted to make up 800 μ[…] solutions. Cell viability was determined using the standard MTT assay protocol, which allows the quantification of the mitochondrial activity in metabolically active cells. MTT (final concentration 0.2 mg/ml) was added to the cells for 2 h, then the culture medium was aspirated and the violet formazan precipitate dissolved in 0.1 N HCl in 2-propanol. The optical density, which is directly proportional to number of surviving cells, was quantified at 540 nm using a multiwell plate reader and the fraction of surviving cells was calculated from the absorbance of untreated control cells. Using the above protocol, the compounds were tested against human T47D and MCF-7 breast carcinoma, A549 lung carcinoma and HT-29 colon carcinoma cell lines (see FIG. 7).

[2] = system: MCF-7 breast carcinoma cell line; assay: Cell growth proliferation inhibition, MTT assay, MCF7; assay type: cell-based, human; conditions: MCF7 cells, 72 hours exposure
Protocol: as §1

[3] = system: T47D breast carcinoma cell line; assay: Cell growth proliferation inhibition, MTT assay, T47D; assay type: cell-based, human; conditions: T47D cells, 72 hours exposure
Protocol: as §1

[4] = system: A549 lung carcinoma cell line; assay: Cell growth proliferation inhibition, MTT assay, A549; assay type: cell-based, human; conditions: A549 cells, 72 hours exposure
Protocol: as §1

[5] = system: H460M Human lung carcinoma/metastatic; assay: IC50 on tumor cell lines, MTT test, H460M; assay type: cell-based; conditions: 3 days treatment, two separate experiments
Protocol: (§2) IC50 values are determined as follows: Tumour cells are incubated in the appropriate complete medium at 37° C. and under controlled atmosphere (5% CO2). Test compounds are tested at doses in the range of 100 nM and 100 μM. Cytotoxicity is determined by the MTT test, by measuring cell viability as the cell metabolic capacity to transform the tetrazolium salt of MTT in the blue formazan, by mitochondrial dehydrogenases; the blue colour is read at 570 nm with a spectrophotometer (Alley M C, Scudiero D A, Monks A, Hursey A L, Czerwinski M J, Fine D L, Abbott B J, Mayo J G, Shoemaker R H, Boyd M R. Feasibility of drug screening with panels of human tumor cell lines using a microculture tetrazolium assay. Cancer Res 48: 598-601, 1988. Mosmann T. Rapid colorimetric assay for cellular growth and survival: application to proliferation and cytotoxicity assays. […] Briefly, on day 0, in 96-well plates, 2-4000 cells/well/100 μl complete medium are plated. On day 1, test compounds are added at the test concentrations of 10^−7 M; 3*10^−7 M; 10^−6 M; 3*10^−6 M; 10^−5 M; 3*10^−5M; 10^−4 M. Each concentration is studied in triplicate. Cell viability, as determined by the MTT test is done on Day 4, after 3 days treatment. Each well is added with 10 μl/100 μl MTT (prepared previously by dissolving 5 mg/ml MTT in PBS, sterilized with filters at a cut-off of 0.22 mm and stored at 4° C.). Plates are put in an incubator at 37° C. for 4 hrs, then medium is eliminated and each well is added with 200 μl DMSO (Sigma Chemical Co., USA). Plates are read with a spectrophotometer (Spectra count Packard Bell, Meriden, Conn., USA) at 570 nm wave length. IC50 is calculated with the GraphPad Prism4.

[6] = system: MIA-PaCa-2 Human pancreatic cancer; assay: IC50 on tumor cell lines, MTT test, MIA PaCa-2; assay type: cell-based; conditions: MIA PaCa-2, 3 days treatment, two separate experiments
Protocol: as §2

[7] = system: HT-29 Human colorectal carcinoma; assay: IC50 on tumor cell lines, MTT test, HT-29; assay type: cell-based; conditions: HT-29, 3 days treatment, two separate experiments
Protocol: as §2

TLX5 Mouse lymphona = assay: IC50 on tumor cell lines, MTT test, TLX5; assay type: cell-based; conditions: TLX5, 3 days treatment, two separate experiments
Protocol: as §2

[8] = system: A2780/CDDP Human ovarian carcinoma resistant to Cistplatin; assay: IC50 on tumor cell lines, MTT test, A2780/CDDP; assay type: cell-based; conditions: for IC50: read-out: IC50 values A2780/CDDP
Protocol: Tumor cell lines derived from human and mouse turnours listed below were stabilised for in vitro propagation.
IC50 values are determined as follows: Tumour cells are incubated in the appropriate complete medium at 37° C. and under controlled atmosphere (5% CO2). Test compounds are tested at doses in the range of 100 nM and 100 μM. Cytotoxicity is determined by the MTT test, by measuring cell viability as the cell metabolic capacity to transform the tetrazolium salt of MTT in the blue formazan, by mitochondrial dehydrogenases; the blue colour is read at 570 nm with a spectrophotometer (Alley M C, Scudiero D A, Monks A, Hursey A L, Czerwinski M J, Fine D L, Abbott B J, Mayo J G, Shoemaker R H, Boyd M R. Feasibility of drug screening with panels of human tumor cell lines using a microculture tetrazolium assay. Cancer Res 48: 598-601, 1988. Mosmann T. Rapid colorimetric assay for cellular growth and survival: application to proliferation and cytotoxicity assays. J Immunol Methods 65: 55-63, 1983). Briefly, on day 0, in 96-well plates, 2-4000 cells/well/100 μl complete medium are plated. On day 1, test compounds are added at the test concentrations of 10^−7 M; 3*10^−7 M; 10^−6 M; 3*10^−6 M; 10^−5 M; 3*10^−5M; 10^−4 M. Each concentration is studied in triplicate. Cell viability, as determined by the MTT test is done on Day 4, after 3 days treatment. Each well is added with 10 μl/100 μl MTT (prepared previously by dissolving 5 mg/ml MTT in PBS, sterilized with filters at a cut-off of […] and stored at 4° C.). Plates are put in an incubator at 37° C. for 4 hrs, then medium is eliminated and each well is added with 200 μl DMSO (Sigma Chemical Co., USA). Plates are read with a spectrophotometer (Spectra count Packard Bell, Meriden, Conn., USA) at 570 nm wave length. IC50 is calculated with the GraphPad Prism4.
The reported values are the most representative of two separate experiments.

[9] = system: A2780 Human ovarian carcinoma; assay: IC50 on tumor cell lines, MTT test, A2780; assay type: cell-based; conditions: A2780, 3 days treatment, two separate experiments
Protocol: as §2

TLX5 lymphona cells = assay: Survival time in an in vivo TLX5 lymphoma model; set-up: species or system CBA brown-grey inbred mice; conditions: for % increase vs Controls (mean survival time) / Mean survival time (days ± SD): TLX5 cells i.p. day 0 in CBA mice, treatment i.p. at day 3, Compound 3 at 200 mg/kg, Cisplatin 8 mg/kg; for Activity in vivo (in words): TLX5 lymphoma in mice, i.p., compound 3 given as suspension in carboxymethylcellulose
Protocol: Tumour cells (TLX5, see above in Example 8) were derived from mouse tumours and stabilised for in vivo propagation. For the animal study, TLX5 lymphona cells were injected in the peritoneal cavity of CBA brown-grey inbred mice (Harlan-Nossan, San Giovanni al Natisone, Udine, Italy) at day 0. Test compounds were applied at day 3 at various doses, also by the intraperitoneal route, with each drug (test compound or reference drug) diluted in appropriate physiological solution and injected in a volume of 0.1 ml/10 g body weight.

[10] = system: Glutathione-S-Transferase; assay: Inhibition of Glutathione-S-Transferase activity in A549 cell lysates (glutathione-CDNB assay); assay type: biochemical, human; conditions: A549 lung carcinoma cell lysates exposed to 100 μM drug solution for 90 mins
Protocol: Human A549 lung carcinoma cells, known to express high levels of Glutathione-S-Transferase, were routinely grown in flasks with DMEM medium containing 4.5 g/l glucose, 10% foetal calf serum (FCS) and antibiotics at 37° C. and 6% CO2. When the cells are confluent, they are trypsinised and concentrated in a centrifuge at 4° C. The cells were then diluted in phosphate-buffer saline (PBS) containing protease inhibitor cocktail (final concentration of 1 μg/ml) and homogenised by repeatedly freezing in liquid nitrogen and thawing (4 cycles). The homogenised cell samples were centrifuged at 4° C. and the supernatant, which is the cell lysates, was separated. The cell lysates are stored at −56° C.
The Ru compounds are weighed, and dissolved in DMSO to 100 mM. […] The cell lysates were exposed to the drug solutions for 90 mins. Control, containing the cell lysates with water/0.1% DMSO was also prepared.
The GST activity in the treated cell lysates was determined using the glutathione-CDNB (1-chloro-2,4-dinitrobenzene) assay. Glutathione and CDNB were dissolved in deionised water and ethanol respectively to make up a 100 mM solutions. A developing solution, containing 50 mM phosphate buffer solution (pH 6.5), was prepared and was added 1% v/v, the 100 mM glutathione and 100 mM CDNB solutions such that their final concentrations are both 1 mM. The developing solution was added to a 96-well plate at 200 μl per well, followed by the treated cell lysates at 2 μl per well. The absorbance at 340 nm was monitored continuously for 5 mins at 15 s intervals. The average slope of the change in absorbance was determined as a fraction of the control as the percentage of residual GST activity.

[11] = A2780/CDDP (Cisplatin-resistant), 3 days treatment, MTT test, two separate experiments

Compound	IC50 ([1]; HT29 cells) [µM]	IC50 [2] [µM]	IC50 [3] [µM]	IC50 [4] [µM]	IC50 [5] [µM]	IC50 [6] [µM]	IC50 [7] [µM]	IC50 (TLX5 Mouse lymphona) [µM]	IC50 [8, 11] [µM]	IC50 [9] [µM]	Residual GST activity (% control) [10] [% control]	also measured
Cc1ccc(C(C)C)cc1.[Cl][Ru]([Cl])[PH]12CN3CN(CN(C3)C1)C2 [(η^6-cymene)Ru(PTA)Cl2, reference compound]	436	> 1600	1060	1030	–	–	–	–	–	–	–	–
N.N.[Cl][Pt][Cl] [Cisplatin]	–	–	–	–	1.3 to 3	10.6 to 12.9	4.9 to 32.6	0.02 to 0.2	> 100	10.5 to 11.8	–	% increase vs Controls (mean survival time) (TLX5 lymphona cells): 18%; Mean survival time (days ± SD) (TLX5 lymphona cells): 11.8 ± 1.79 days; Activity in vivo (in words) (TLX5 lymphona cells): effective
C1N2CN3CN1CP(C2)C3.C=C(CC)C(=O)c1ccc(OCC(=O)OCCc2ccccc2)c(Cl)c1Cl.[Cl][Ru][Cl] [Compound 4, (Ethacrynic-η^6:phenylethanoate)Ru(PTA)Cl2]	106	105	6.28	66.7	29.1 to 31.5	81.5 to 92.7	30 to 32.6	3.6 to 4.3	36.7 to 38.7	~30	42.77 ± 13.9	Activity against the Cisplatin-resistant cell line A2780/CDDP (in words) ([8]; A2780/CDDP, MTT test): active
C=C(CC)C(=O)c1ccc(OCC(=O)O)c(Cl)c1Cl [Ethacrynic acid, reference compound]	–	–	–	–	–	–	–	–	–	–	–	IC50 ([5]; Homo sapiens, 72 h): 58.1 to 63.3 µM; IC50 ([1]; Homo sapiens, HT-29, HT29 cells): 73.5 µM; IC50 ([6]; Homo sapiens, 72 h): > 100 µM; IC50 ([2]; Homo sapiens): 66 µM; IC50 ([7]; Homo sapiens, 72 h): 35.2 to 44 µM; IC50 ([3]; Homo sapiens): 7.73 µM; IC50 (TLX5 Mouse lymphona; Mus musculus, TLX-5, 72 h): 1.3 to 1.8 µM; IC50 ([8]; Homo sapiens, A2780/CDDP, 72 h): 84.3 to 97.6 µM; IC50 ([9]; Homo sapiens, 72 h): 91.1 to 94.8 µM; IC50 ([4]; Homo sapiens): 50.7 µM
(Ethacrynic-η^6:benzylamide)Ru(PTA)Cl2 [Compound 3]	50.7	19.9	2.91	32.3	2.5 to 3.8	14.7 to 20.1	2.3 to 3.8	0.8 to 3	4.6 to 5.3	7.1 to 9.5	63.57 ± 2.0	Activity against the Cisplatin-resistant cell line A2780/CDDP (in words) ([8]; A2780/CDDP, MTT test): active; % increase vs Controls (mean survival time) (TLX5 lymphona cells): 22%; Mean survival time (days ± SD) (TLX5 lymphona cells): 12.2 days and 12.2 ± 1.79 days; Activity in vivo (in words) (TLX5 lymphona cells): active in vivo
(η^6 cymene)Ru(PTA)(C2O4) [Compound 8]	267	> 1600	1170	1130	–	–	–	–	–	–	–	–
(η^6-cymene)Ru(PTA)(C6H6O4) [Compound 9]	265	> 1600	1090	1570	–	–	–	–	–	–	–	–
(η^6-cymene)RuCl2(ethacrynic-propylamide-imidazole) [Compound 6]	39.1	10.7	4.8	34	–	–	–	–	–	–	23.70 ± 10.7	–
RAPTA-T	–	–	–	–	> 100	> 100	> 100	64.1 to 92.9	> 100	> 100	–	–
[(η^6-cymene)RuCl(PTA)(imidazolium-ethacrynic aide)]BF4^− [Compound 7]	64.2	19.9	5.97	65.1	–	–	–	–	–	–	62.58 ± 8.8	–
